Measurements: PubChem BioAssay (NCI)
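Protocol summary: plate cells (96-well), add compound at 5 concentrations, incubate 48 h, interpolate endpoints linearly. GI50: concentration for 50% inhibition of growth. TGI: total growth inhibition.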 Where a SMILES comes first, the peptide text is derived from it. The star is where a group is joined. Cbz = O=C(OCc1ccccc1)*

Legend:
Test in all cases: growth of human tumour cells (NCI), 48 h
MOLT-4 leukemia = system: MOLT-4 leukemia
RXF 393 renal = system: RXF 393 renal
COLO 205 colon = system: COLO 205 colon
PC-3 prostate = system: PC-3 prostate
UACC-257 melanoma = system: UACC-257 melanoma
UACC-62 melanoma = system: UACC-62 melanoma
KM12 colon = system: KM12 colon
786-0 renal = system: 786-0 renal
SNB-75 CNS = system: SNB-75 CNS
NCI-H522 lung = system: NCI-H522 lung

SMILES	TGI (MOLT-4 leukemia) [µM]	TGI (RXF 393 renal) [µM]	TGI (COLO 205 colon) [µM]	TGI (PC-3 prostate) [µM]	TGI (UACC-257 melanoma) [µM]	TGI (UACC-62 melanoma) [µM]	TGI (KM12 colon) [µM]	TGI (786-0 renal) [µM]	TGI (SNB-75 CNS) [µM]	TGI (NCI-H522 lung) [µM]	GI50 (MOLT-4 leukemia) [µM]	GI50 (NCI-H522 lung) [µM]	GI50 (RXF 393 renal) [µM]	GI50 (COLO 205 colon) [µM]	GI50 (UACC-257 melanoma) [µM]	GI50 (KM12 colon) [µM]	GI50 (SNB-75 CNS) [µM]
O=C(CN1CCCCC1)c1ccc2[nH]c(=O)oc2c1	> 100	> 100	> 100	> 100	> 100	> 100	> 100	> 100	87.8	–	–	–	–	–	–	–	–
CCOC(=O)c1nc2ccccc2nc1Nc1cc(OC)c(OC)c(OC)c1	> 100	–	> 100	–	–	> 100	> 100	> 100	> 100	> 100	–	–	–	–	–	–	–
CC(Nc1cccc(Cl)c1)c1ccncc1 (configuration not stated)	> 100	> 100	> 100	> 100	> 100	–	> 100	> 100	> 100	> 100	–	–	–	–	–	–	–
CCOC(=O)c1nc(SC)sc1NC(=O)c1ccc(OC)cc1	> 100	> 100	> 100	> 100	> 100	> 100	> 100	> 100	–	> 100	–	–	–	–	–	–	–
CC(C)C(Sc1nc(-c2ccccc2)c(-c2ccccc2)[nH]1)C(=O)N/N=C/c1ccc(Cl)cc1 (configuration not stated)	–	–	35.5	–	53.7	40.1	44.7	40.8	67.6	41.7	–	–	–	–	–	–	–
Cc1cccc(C)c1NC(=S)N/C=C(\C#N)C(N)=O	> 100	> 100	> 100	> 100	> 100	> 100	> 100	> 100	–	> 100	–	–	–	–	–	–	–
CC1=C[C@H](C[C@]2(C)c3c(c4c(C)cccc4oc3=O)O[C@@H]2C)OC1=O	72.3	–	> 100	> 100	> 100	> 100	> 100	50	> 100	49.6	–	–	–	–	–	–	–
COC(=O)C1=C(C(=O)OC)C23CC4CCC2(C(=O)C1O3)C4(C)C (configuration not stated)	> 100	> 100	> 100	–	> 100	> 100	> 100	> 100	> 100	48.8	–	–	–	–	–	–	–
CCN(CC)P(=O)(c1ccc2c(c1)OCCOCCOCCOCCO2)N(CC)CC	> 100	–	> 100	> 100	–	> 100	> 100	> 100	> 100	> 100	–	–	–	–	–	–	–
Cc1ccccc1NC(=O)C(=O)C(C1OC(=O)c2ccccc21)[N+](=O)[O-] (configuration not stated)	> 100	> 100	> 100	–	> 100	> 100	> 100	–	> 100	> 100	–	–	–	–	–	–	–
Fc1ccc(F)c(C=NC23CC4CC(CC(C4)C2)C3)c1	> 10	> 10	> 10	> 10	> 10	–	> 10	> 10	> 10	> 10	–	–	–	–	–	–	–
COc1ccc(/C=C2\C(=O)N(C(=O)c3ccc(NC(C)=O)cc3)N=C2C)cc1OC	> 100	–	> 100	–	> 100	–	> 100	> 100	> 100	> 100	–	–	–	–	–	–	–
Cc1cccc(-c2cc(=O)c3cccnc3[nH]2)c1	> 100	> 100	7.5	> 100	–	> 100	82	> 100	> 100	8.25	–	–	–	–	–	–	–
O=c1[nH]c2c(C(F)(F)F)c(Cl)c(-c3ccccc3)nc2o1	32.5	75.3	28.1	76.2	59.9	> 100	> 100	> 100	–	> 100	–	–	–	–	–	–	–
O=[N+]([O-])C(/C(Cl)=C(/Cl)N1CCOCC1)=C1\Nc2ccccc2O1	> 100	–	> 100	> 100	> 100	> 100	> 100	> 100	> 100	–	–	–	–	–	–	–	–
CC(C)(C)c1ccc(O)c(C(O)c2ccccn2)c1 (configuration not stated)	> 100	> 100	> 100	> 100	–	26.4	> 100	> 100	> 100	> 100	–	–	–	–	–	–	–
CCCCOC(=O)Nc1ccc(S(=O)(=O)Nc2c(Cl)cccc2Cl)cc1	88.4	> 100	34.3	> 100	> 100	54.6	99.4	79.5	–	> 100	–	–	–	–	–	–	–
COc1ccccc1C1C(C#N)=C(N)SC(N)=C1C#N	> 100	> 100	> 100	–	> 100	–	> 100	–	> 100	76.2	45	29.9	> 100	> 100	> 100	37.8	39.2

SMILES	TGI (MOLT-4 leukemia) [µM]	TGI (RXF 393 renal) [µM]	TGI (COLO 205 colon) [µM]	TGI (PC-3 prostate) [µM]	TGI (UACC-257 melanoma) [µM]	TGI (UACC-62 melanoma) [µM]	TGI (KM12 colon) [µM]	TGI (786-0 renal) [µM]	TGI (SNB-75 CNS) [µM]	TGI (NCI-H522 lung) [µM]	GI50 (MOLT-4 leukemia) [µM]	GI50 (NCI-H522 lung) [µM]	GI50 (RXF 393 renal) [µM]	GI50 (COLO 205 colon) [µM]	GI50 (UACC-257 melanoma) [µM]	GI50 (KM12 colon) [µM]	GI50 (SNB-75 CNS) [µM]
CN(C(=O)Cc1cc(Cl)c(Cl)cc1NC(=O)CCCN)[C@H]1CCCC[C@@H]1N1CCCC1	> 100	48.7	35	> 100	33.3	40.4	36.7	36.2	–	29.8	–	–	–	–	–	–	–
CC1OC1C(=O)P(=O)(O)O (configuration not stated)	> 100	–	> 100	> 100	> 100	> 100	> 100	–	> 100	> 100	–	–	–	–	–	–	–
C[C@]12C(=O)OC[C@H](c3ccccc3)N1C(=O)N(Cc1ccccc1)[C@@H]2CO	> 100	> 100	> 100	> 100	> 100	> 100	> 100	> 100	> 100	–	–	–	–	–	–	–	–
CN1CCN(c2n[nH]c(=O)c3c2nnn3Cc2ccccc2)CC1	> 100	> 100	> 100	37.1	> 100	–	> 100	> 100	> 100	–	–	–	–	–	–	–	–
CCOC(=O)CCC(NC(=O)C(CC(=O)OC)NC(=O)OCc1ccccc1)C(=O)NC(CC(=O)OC)C(=O)NC(CCC(=O)OCC)C(=O)NC(CC(=O)OC)C(=O)NC(CCC(=O)OCC)C(=O)NC(CC(=O)OCC)C(=O)OCC (configuration not stated) (Cbz-D(OMe)E(OEt)D(OMe)E(OEt)D(OMe)E(OEt)D(OEt)-OEt; configuration not given here)	> 100	–	–	> 100	> 100	> 100	–	> 100	–	> 100	–	–	–	–	–	–	–
CC(C)NC1CCCCC2c3ccccc3C12O (configuration not stated)	> 100	> 100	> 100	–	> 100	> 100	> 100	> 100	> 100	> 100	–	–	–	–	–	–	–
CCO/C(O)=c1/s/c(=C2/SC(=S)N(c3ccc(C)cc3)C2=O)n(-c2ccccc2)c1=N	> 100	–	> 100	> 100	> 100	> 100	> 100	77.4	22	> 100	–	–	–	–	–	–	–
C#CCOC(=O)C=[N+]=[N-]	> 10	> 10	–	> 10	> 10	> 10	> 10	> 10	–	–	–	–	–	–	–	–	–
[N-]=[N+]=NC1C(Cl)C(=O)NC(=O)N1[C@H]1C[C@H](O)[C@@H](CO)O1 (some centres not stated)	> 100	> 100	> 100	–	> 100	> 100	> 100	> 100	> 100	36.2	–	5.31	–	–	–	–	–
Cc1cc2c3c(c1)S(=O)(=O)c1cc(Cl)ccc1N3CCC2	> 100	> 100	> 100	> 100	> 100	> 100	> 100	> 100	> 100	–	–	–	–	–	–	–	–
CN(C)CC1CCC/C(=C\c2ccc(Cl)c(Cl)c2)C1=O (configuration not stated)	4.83	–	7.27	> 33.5	21.7	12.8	4.04	3.42	21.2	4.1	–	–	–	–	–	–	–
CCN(CC)c1c(-c2c(OC(C)C)c(=O)c2=O)c(=O)n2ccsc2c1OC(C)=O	> 100	–	> 100	> 100	> 100	> 100	> 100	> 100	> 100	> 100	–	–	–	–	–	–	–
O=NN(CC1(O)OCC(O)C(O)C1O)C(Cc1c[nH]c2ccccc12)C(=O)O (configuration not stated)	> 100	> 100	> 100	–	> 100	> 100	> 100	> 100	> 100	> 100	–	–	–	–	–	–	–
Cc1cnoc1/N=C1\C=C(Nc2oncc2C)C(=O)c2ccccc21	> 100	> 100	> 100	–	> 100	> 100	> 100	> 100	> 100	–	–	–	–	–	–	–	–
Cc1c2ccccc2c(=O)n2c(-c3ccccn3)cccc12	> 100	> 100	> 100	–	> 100	> 100	> 100	> 100	> 100	> 100	–	–	–	–	–	–	–
Cn1c2ccccc2n2c(=O)c(-c3ccc(Cl)cc3)nnc12	> 100	> 100	> 100	–	> 100	–	> 100	> 100	> 100	> 100	–	–	–	–	–	–	–
c1ccc(C/C(=N\Nc2nc3ccccc3[nH]2)c2ccccn2)cc1	6.85	1.58	–	0.503	1.54	2.79	15.4	5.7	–	0.105	–	–	–	–	–	–	–
